Test results taken from article PMC3297362 (Journal of Medicinal Chemistry, 2012).

Experiments:
[1] = target: T1, hCOX-2 in HNSCC 1483 cells (Homo sapiens, UniProt P35354); assay type: cell-based; details: at 5 μM
T1 sequence (P35354 18-604): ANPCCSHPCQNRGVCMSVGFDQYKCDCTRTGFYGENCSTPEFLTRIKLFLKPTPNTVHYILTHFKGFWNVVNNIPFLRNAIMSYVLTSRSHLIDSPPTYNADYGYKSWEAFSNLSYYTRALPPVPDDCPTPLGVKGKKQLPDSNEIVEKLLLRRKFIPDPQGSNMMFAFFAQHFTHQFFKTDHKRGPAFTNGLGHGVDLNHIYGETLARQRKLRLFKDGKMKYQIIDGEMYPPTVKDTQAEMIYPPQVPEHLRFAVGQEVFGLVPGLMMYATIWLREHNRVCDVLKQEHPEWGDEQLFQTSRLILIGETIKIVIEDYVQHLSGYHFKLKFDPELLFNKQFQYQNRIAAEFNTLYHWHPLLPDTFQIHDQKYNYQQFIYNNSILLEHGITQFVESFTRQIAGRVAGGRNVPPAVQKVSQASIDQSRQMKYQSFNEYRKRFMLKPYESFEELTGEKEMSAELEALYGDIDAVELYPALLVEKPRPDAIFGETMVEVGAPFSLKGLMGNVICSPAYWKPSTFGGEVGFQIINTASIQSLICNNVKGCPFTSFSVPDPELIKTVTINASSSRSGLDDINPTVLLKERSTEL

[2] = system: peroxisome proliferator-activated receptor (PPAR)γ; details: cell culture; cited from earlier work
[3] = target: T2, murine COX-2 (Mus musculus, UniProt Q05769); experiment: biochemical; details: COX-2 IC50, purified mCOX-2; 5 μM AA
T2 sequence (Q05769 18-604): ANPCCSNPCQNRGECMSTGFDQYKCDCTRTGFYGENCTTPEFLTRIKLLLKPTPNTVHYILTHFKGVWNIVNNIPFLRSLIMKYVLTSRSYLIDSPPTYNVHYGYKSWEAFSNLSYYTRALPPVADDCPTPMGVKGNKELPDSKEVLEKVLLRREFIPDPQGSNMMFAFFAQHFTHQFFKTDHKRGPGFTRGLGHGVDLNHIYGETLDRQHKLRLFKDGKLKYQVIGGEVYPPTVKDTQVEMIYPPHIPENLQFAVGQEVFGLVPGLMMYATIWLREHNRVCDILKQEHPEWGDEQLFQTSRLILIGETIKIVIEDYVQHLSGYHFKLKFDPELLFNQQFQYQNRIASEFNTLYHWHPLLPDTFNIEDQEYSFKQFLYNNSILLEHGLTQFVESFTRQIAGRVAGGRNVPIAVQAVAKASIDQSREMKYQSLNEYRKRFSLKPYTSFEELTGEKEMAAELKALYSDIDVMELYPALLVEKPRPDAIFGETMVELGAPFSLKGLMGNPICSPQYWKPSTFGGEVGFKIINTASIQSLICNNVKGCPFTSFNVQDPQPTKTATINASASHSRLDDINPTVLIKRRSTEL

[4] = target: T3, ovine COX-1 (Ovis aries, UniProt P05979); assay type: biochemical
T3 sequence (P05979 25-600): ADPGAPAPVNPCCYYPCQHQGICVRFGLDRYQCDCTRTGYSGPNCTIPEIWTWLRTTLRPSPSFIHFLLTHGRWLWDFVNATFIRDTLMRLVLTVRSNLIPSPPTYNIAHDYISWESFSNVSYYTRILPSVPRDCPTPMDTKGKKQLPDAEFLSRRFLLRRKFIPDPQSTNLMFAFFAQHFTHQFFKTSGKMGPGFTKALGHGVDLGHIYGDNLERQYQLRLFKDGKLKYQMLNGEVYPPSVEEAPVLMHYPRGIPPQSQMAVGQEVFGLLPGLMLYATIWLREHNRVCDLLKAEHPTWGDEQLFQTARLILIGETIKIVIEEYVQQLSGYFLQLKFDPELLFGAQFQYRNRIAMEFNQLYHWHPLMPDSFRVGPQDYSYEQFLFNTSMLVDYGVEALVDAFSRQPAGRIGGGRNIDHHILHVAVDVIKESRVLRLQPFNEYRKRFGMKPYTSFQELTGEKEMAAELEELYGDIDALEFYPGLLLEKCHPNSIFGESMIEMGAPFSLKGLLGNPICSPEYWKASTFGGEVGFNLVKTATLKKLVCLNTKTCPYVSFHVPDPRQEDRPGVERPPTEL

SMILES	inhibition of hCOX-2 in HNSCC 1483 cells (in words) [1]	activation of PPARγ (in words) [2]	IC50 [3] [µM]	improvement in activity against COX-1 as compared with reference compound 2 [4]
CSc1ccc(/C=C2\C=C(CC(=O)O)c3cc(F)ccc32)cc1 [compound 2, (E)-2-(5-fluoro-1-(4-(methylthio)benzylidene)-1H-inden-3-yl)acetic acid]	no inhibition			
O=C(O)CC1=C/C(=C\c2ccc(-c3ccccc3)cc2)c2ccc(F)cc21 [compound 13a]	no inhibition	potent activator		
O=C(CC1=C/C(=C\c2ccc(-c3ccccc3)cc2)c2ccc(F)cc21)NS(=O)(=O)C(F)(F)F [compound 21c, (E)-2-(1-([1,1′-Biphenyl]-4-ylmethylene)-5-fluoro-1H-inden-3-yl)-N-((trifluoromethyl)sulfonyl)-acetamide]			14	more than 4 fold
